Experimental data taken from patent US12668587B2, “Benzimidazolone GLP-1 receptor agonist and use thereof” (HANGZHOU ZHONGMEIHUADONG PHARMACEUTICAL CO., LTD., priority 2020, dated 2026).
Like-named read-outs stand apart in the source and are kept apart here.

What was measured:
[1] = Metabolic stability in (human) liver microsomes; details: pH 7.4
Human GLP-1R = Human GLP-1R (Homo sapiens, UniProt P43220); assay: GLP-1R agonist activity, HTRF cAMP detection in 293A GFP-GLP-1R cells; design: Emax: dose or concentration left out as unconfirmed; details: for Emax: 293A
Experimental: GLP-1R-mediated agonist activity was determined by cell-based assays using a homogeneous time-resolved fluorescence (i.e., HTRF)-based cAMP detection kit, which measures the level of cAMP in cells. The method was a competitive immunoassay. It enabled direct pharmacological characterization of compounds acting on Gs-coupled receptors in adherent or suspending cells.
The standard curve of native cAMP or unlabeled cAMP produced by cells competed with d2-labeled cAMP red receptors to bind monoclonal anti-cAMP Eu3+ cryptate donors, and the specific signal was inversely proportional to the concentration of cAMP in standard or tested samples.
Human GLP-1R encoding sequence (NCBI reference sequence NP_002053.3) was subcloned into pEGFP-N1 (tsingke), and the cell line stably expressing the receptor was isolated. The expression density of GLP-1R was confirmed by the expression of GFP observed under a fluorescence microscope.
Cells were collected from a T25 tissue culture flask and centrifuged at room temperature at 1000 rpm for 5 minutes. The cell precipitates were then re-suspended in 1 mL of the stimulating buffer. 20 μL sample of cell suspension was counted on a counter STAR IC 1000 to determine the cell viability and the cell count per mL. The remaining cell suspension was then regulated with the stimulating buffer to deliver 2000 living cells per well using a multi-channel pipette. 5 μL of the cell suspension was added to each well of the plate which already contained the compound. The plate was sealed and incubated at 37° C. with 5% CO2 for 30 minutes.
After 30 minutes of incubation, 5 μL of d2-labeled cAMP and 5 μL of anti-cAMP cryptate (both 1: 20 diluted in the cell lysis buffer) were added to each well of the plate. The plate was then incubated at room temperature for 60 minutes, and the changes of HTRF signal were read with Tecan Spark reader: absorbance values at 340 nm (excitation)/at 615 nm and 665 nm (emission). Raw data were converted into nM cAMP by interpolation from the cAMP standard curve, and the effect in percentage was determined relative to the saturated concentration of the complete agonist GLP-17˜37 (400 nM) contained in each plate. Determination of EC50 was performed based on the agonist dose-response curve, which was analyzed using a four-parameter logical dose-response equation with a curve fitting program.
The test data presented the results in the form of a geometric mean (EC50s) based on the number of repetition times.

hERG potassium channels = hERG potassium channels (Homo sapiens, UniProt Q12809); assay: Inhibition of hERG potassium channels, whole-cell patch clamp in HEK-293-hERG cells
Sequence of hERG potassium channels (Q12809 whole entry): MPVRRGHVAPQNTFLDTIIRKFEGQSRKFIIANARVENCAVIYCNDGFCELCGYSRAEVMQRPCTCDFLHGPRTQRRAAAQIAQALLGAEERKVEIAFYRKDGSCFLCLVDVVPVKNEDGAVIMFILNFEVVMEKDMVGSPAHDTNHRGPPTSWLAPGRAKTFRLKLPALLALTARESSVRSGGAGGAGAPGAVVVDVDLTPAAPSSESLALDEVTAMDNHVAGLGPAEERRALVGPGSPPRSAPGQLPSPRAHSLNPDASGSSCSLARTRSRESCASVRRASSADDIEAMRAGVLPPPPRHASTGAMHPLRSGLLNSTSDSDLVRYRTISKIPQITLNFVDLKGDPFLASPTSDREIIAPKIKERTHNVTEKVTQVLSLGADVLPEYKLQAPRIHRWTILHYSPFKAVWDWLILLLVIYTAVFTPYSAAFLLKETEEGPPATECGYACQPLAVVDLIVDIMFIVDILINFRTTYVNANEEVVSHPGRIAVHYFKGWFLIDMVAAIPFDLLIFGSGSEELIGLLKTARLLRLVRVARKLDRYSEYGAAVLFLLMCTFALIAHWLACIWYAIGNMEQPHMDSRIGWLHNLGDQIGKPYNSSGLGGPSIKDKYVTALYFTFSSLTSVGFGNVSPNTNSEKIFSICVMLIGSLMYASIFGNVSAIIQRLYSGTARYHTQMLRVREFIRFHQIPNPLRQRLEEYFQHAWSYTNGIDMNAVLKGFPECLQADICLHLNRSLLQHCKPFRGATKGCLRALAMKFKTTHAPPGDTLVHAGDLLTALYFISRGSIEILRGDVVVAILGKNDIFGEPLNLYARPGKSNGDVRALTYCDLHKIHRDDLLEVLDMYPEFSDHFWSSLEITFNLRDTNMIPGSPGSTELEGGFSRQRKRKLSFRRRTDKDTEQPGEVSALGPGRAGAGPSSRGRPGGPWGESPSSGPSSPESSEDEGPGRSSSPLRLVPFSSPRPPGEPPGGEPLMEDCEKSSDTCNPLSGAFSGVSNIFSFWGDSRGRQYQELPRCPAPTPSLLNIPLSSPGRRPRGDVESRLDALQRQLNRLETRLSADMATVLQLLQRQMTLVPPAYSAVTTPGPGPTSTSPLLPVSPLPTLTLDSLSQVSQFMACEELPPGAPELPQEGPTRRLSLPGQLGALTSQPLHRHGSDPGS

Sequence of Human GLP-1R (P43220 24-463): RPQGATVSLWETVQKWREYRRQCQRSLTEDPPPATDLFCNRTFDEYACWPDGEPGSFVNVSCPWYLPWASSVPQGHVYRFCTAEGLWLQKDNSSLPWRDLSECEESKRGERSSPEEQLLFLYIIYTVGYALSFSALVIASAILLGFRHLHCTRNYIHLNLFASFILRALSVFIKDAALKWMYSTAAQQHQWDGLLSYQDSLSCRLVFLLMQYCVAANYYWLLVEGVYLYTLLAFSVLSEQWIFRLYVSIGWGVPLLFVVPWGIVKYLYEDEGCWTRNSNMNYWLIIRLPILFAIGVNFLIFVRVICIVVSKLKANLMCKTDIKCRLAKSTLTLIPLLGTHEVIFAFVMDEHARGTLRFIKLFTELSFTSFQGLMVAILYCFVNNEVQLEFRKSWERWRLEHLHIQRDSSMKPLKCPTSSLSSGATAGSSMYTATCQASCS

Structure (SMILES)	EC50 (Human GLP-1R) [nM]	Emax (Human GLP-1R) [%]	further results
O=C(O)c1ccc2nc(CN3CC=C(c4cccc(OCc5ccc(C(=O)C6CC6)cc5F)n4)CC3)n(C[C@@H]3CCO3)c2c1 [Compound 22, (S)-2-((6-((4-(cyclopropanecarbonyl)-2-fluorobenzyl)oxy)-3′,6′-dihydro-[2,4′-bipyridin]-1′(2′H)-yl)methyl)-1-(oxetan-2-ylmethyl)-1H-benzo[d]imidazole-6-carboxylic acid]	2.07	83.4	half-life at 1 μM [1]: 60.1 min; hERG (IR) (hERG potassium channels; inhibition rate of hERG tail current at 1 μM): 0.92%; hERG (IR) (hERG potassium channels; inhibition rate of hERG tail current at 10 μM): 23.50%
CCC(=O)c1ccc(COc2cccc(C3=CCN(Cc4nc5ccc(C(=O)O)cc5n4C[C@@H]4CCO4)CC3)n2)c(F)c1 [Compound 25, (S)-2-((6-((2-fluoro-4-propionylbenzyl)oxy)-3′,6′-dihydro-[2,4′-bipyridin]-1′(2′H)-yl)methyl)-1-(oxetan-2-ylmethyl)-1H-benzo[d]imidazole-6-carboxylic acid]	0.95	100	half-life at 1 μM [1]: 25.5 min
CC(=O)c1ccc(COc2cccc(N3CCN(Cc4nc5ccc(C(=O)O)cc5n4C[C@@H]4CCO4)[C@@H](C)C3)n2)c(F)c1 [Compound 28, 2-(((S)-4-(6-((4-acetyl-2-fluorobenzyl)oxy)pyridin-2-yl)-2-methylpiperazin-1-yl)methyl)-1-(((S)-oxetan-2-yl)methyl)-1H-benzo[d]imidazole-6-carboxylic acid]	0.3	95.2	
CN1CCC(C(=O)c2ccc(COc3cccc(C4CCN(Cc5nc6ccc(C(=O)O)cc6n5C[C@@H]5CCO5)CC4)n3)c(F)c2)CC1 [Compound 29, (S)-2-((4-(6-((2-fluoro-4-(1-methylpiperidin-4-carbonyl)benzyl)oxy)pyridin-2-yl)piperidin-1-yl)methyl)-1-(oxetan-2-ylmethyl)-1H-benzo[d]imidazole-6-carboxylic acid]		7.12	
CCOc1cc(C(C)=O)ccc1COc1cccc(C2CCN(Cc3nc4ccc(C(=O)O)cc4n3C[C@@H]3CCO3)CC2)n1 [Compound 30, (S)-2-((4-(6-((4-acetyl-2-ethoxybenzyl)oxy)pyridin-2-yl)piperidin-1-yl)methyl)-1-(oxetan-2-ylmethyl)-1H-benzo[d]imidazole-6-carboxylic acid]	0.91	112	
CC(=O)c1ccc(COc2cccc(C3CCN(Cc4nc5ccc(C(=O)O)cc5n4C[C@@H]4CCO4)CC3)n2)c(OC2CC2)c1 [Compound 31, (S)-2-((4-(6-((4-acetyl-2-cyclopropoxybenzyl)oxy)pyridin-2-yl)piperidin-1-yl)methyl)-1-(oxetan-2-ylmethyl)-1H-benzo[d]imidazole-6-carboxylic acid]	18.5	75.4	
COc1cc(C(=O)C(C)C)ccc1COc1cccc(C2CCN(Cc3nc4ccc(C(=O)O)cc4n3C[C@@H]3CCO3)CC2)n1 [Compound 32, (S)-2-((4-(6-((4-isobutyryl-2-methoxybenzyl)oxy)pyridin-2-yl)piperidin-1-yl)methyl)-1-(oxetan-2-ylmethyl)-1H-benzo[d]imidazole-6-carboxylic acid]	416	102	
O=C(O)c1ccc2nc(CN3CCC(c4cccc(OCc5ccc(C(=O)C6CC6)cc5F)n4)CC3)n(C[C@@H]3CCO3)c2n1 [Compound 33, (S)-2-((4-(6-((4-(cyclopropanecarbonyl)-2-fluorobenzyl)oxy)pyridin-2-yl)piperidin-1-yl)methyl)-3-(oxetan-2-ylmethyl)-3H-imidazo[4,5-b]pyridine-5-carboxylic acid]	1.59	92.9	
CC(=O)c1ccc(COc2cccc(C3=CCN(Cc4nc5ccc(C(=O)O)cc5n4C[C@@H]4CCO4)CC3)n2)c(F)c1 [Compound 34, (S)-2-((6-((4-acetyl-2-fluorobenzyl)oxy)-3′,6′-dihydro-[2,4′-bipyridin]-1′(2′H)-yl)methyl)-1-(oxetan-2-ylmethyl)-1H-benzo[d]imidazole-6-carboxylic acid]	0.7	81.5	half-life at 1 μM [1]: 14.2 min
CCn1cnc(Cn2c(CN3CCC(c4cccc(OCc5ccc(C(=O)C6CC6)cc5F)n4)CC3)nc3ccc(C(=O)O)cc32)c1 [Compound 35, 2-((4-(6-((4-(cyclopropanecarbonyl)-2-fluorobenzyl)oxy)pyridin-2-yl)piperidin-1-yl)methyl)-1-((1-ethyl-1H-imidazol-4-yl)methyl)-1H-benzo[d]imidazole-6-carboxylic acid]	32		
COc1cc(C(=O)C2CC2)cc(F)c1COc1cccc(C2CCN(Cc3nc4ccc(C(=O)O)cc4n3C[C@@H]3CCO3)CC2)n1 [Compound 36, (S)-2-((4-(6-((4-(cyclopropanecarbonyl)-2-fluoro-6-methoxybenzyl)oxy)pyridin-2-yl)piperidin-1-yl)methyl)-1-(oxetan-2-ylmethyl)-1H-benzo[d]imidazole-6-carboxylic acid]	20.4	84.9	
COc1cc(COc2cccc(C3CCN(Cc4nc5ccc(C(=O)O)cc5n4C[C@@H]4CCO4)CC3)n2)c(F)cc1C(=O)C1CC1 [Compound 37, (S)-2-((4-(6-((4-(cyclopropanecarbonyl)-2-fluoro-5-methoxybenzyl)oxy)pyridin-2-yl)piperidin-1-yl)methyl)-1-(oxetan-2-ylmethyl)-1H-benzo[d]imidazole-6-carboxylic acid]	228	68.5	
Cc1cc(COc2cccc(C3CCN(Cc4nc5ccc(C(=O)O)cc5n4C[C@@H]4CCO4)CC3)n2)c(F)cc1C(=O)C1CC1 [Compound 38, (S)-2-((4-(6-((4-(cyclopropanecarbonyl)-2-fluoro-5-methylbenzyl)oxy)pyridin-2-yl)piperidin-1-yl)methyl)-1-(oxetan-2-ylmethyl)-1H-benzo[d]imidazole-6-carboxylic acid]	> 1000	85.9	
C[C@H]1CN(c2cccc(OCc3ccc(C(=O)C4CC4)cc3F)n2)CCN1Cc1nc2ccc(C(=O)O)cc2n1C[C@@H]1CCO1 [Compound 39, 2-(((S)-4-(6-((4-(cyclopropanecarbonyl)-2-fluorobenzyl)oxy)pyridin-2-yl)-2-methylpiperazin-1-yl)methyl)-1-(((S)-oxetan-2-yl)methyl)-1H-benzo[d]imidazole-6-carboxylic acid]	3.38	87.9	
Cc1cc(C(=O)C2CC2)ccc1COc1cccc(C2CCN(Cc3nc4ccc(C(=O)O)nc4n3C[C@@H]3CCO3)CC2)n1 [Compound 40, (S)-2-((4-(6-((4-(cyclopropanecarbonyl)-2-methylbenzyl)oxy)pyridin-2-yl)piperidin-1-yl)methyl)-3-(oxetan-2-ylmethyl)-3H-imidazo[4,5-b]pyridine-5-carboxylic acid]	0.07	94.7	
Cc1cc(C(=O)C2CC2)ccc1COc1cccc(N2CCN(Cc3nc4ccc(C(=O)O)cc4n3C[C@@H]3CCO3)[C@@H](C)C2)n1 [Compound 41, 2-(((S)-4-(6-((4-(cyclopropanecarbonyl)-2-methylbenzyl)oxy)pyridin-2-yl)-2-methylpiperazin-1-yl)methyl)-1-(((S)-oxetan-2-yl)methyl)-1H-benzo[d]imidazole-6-carboxylic acid]	> 1000	77.3	
O=C(O)c1ccc2nc(CC3CCN(c4cccc(OCc5ccc(C(=O)C6CC6)cc5F)n4)CC3)n(C[C@@H]3CCO3)c2c1 [Compound 42, (S)-2-((1-(6-((4-(cyclopropanecarbonyl)-2-fluorobenzyl)oxy)pyridin-2-yl)piperidin-4-yl)methyl)-1-(oxetan-2-ylmethyl)-1H-benzo[d]imidazole-6-carboxylic acid]	0.23		
CC(C)C(=O)c1ccc(COc2cccc(C3CCN(Cc4nc5ccc(C(=O)O)cc5n4C[C@@H]4CCO4)CC3)n2)c(F)c1 [Compound 43, (S)-2-((4-(6-((2-fluoro-4-isobutyrylbenzyl)oxy)pyridin-2-yl)piperidin-1-yl)methyl)-1-(oxetan-2-ylmethyl)-1H-benzo[d]imidazole-6-carboxylic acid]			EC50 (Human GLP-1R; cAMP level, 293A GFP-GLP-1R cells, 30 min incubation, geometric mean): 1.4 nM
O=C(O)c1ccc2nc(CN3CCC(c4cccc(OCc5ccc(C(=O)C6CC6)cc5Cl)n4)CC3)n(C[C@@H]3CCO3)c2c1 [Compound 44, (S)-2-((4-(6-((2-chloro-4-(cyclopropanecarbonyl)benzyl)oxy)pyridin-2-yl)piperidin-1-yl)methyl)-1-(oxetan-2-ylmethyl)-1H-benzo[d]imidazole-6-carboxylic acid]	0.02		
N#CCC1(Cn2c(CN3CCC(c4cccc(OCc5ccc(C(=O)C6CC6)cc5F)n4)CC3)nc3ccc(C(=O)O)cc32)CC1 [Compound 45]	0.013		
O=C(O)c1ccc2nc(Cc3ccc(-c4cccc(OCc5ccc(C(=O)C6CC6)cc5F)n4)cc3F)n(C[C@@H]3CCO3)c2c1 [Compound 46]	0.02		
O=C(O)c1ccc2nc(CN3CCC(c4cccc(OCc5ccc(C(=O)C6CC6)cc5F)n4)CC3)n(CC3(CF)CC3)c2c1 [Compound 47]	0.01		
O=C(O)c1ccc2nc(Cc3ccc(-c4cccc(OCc5ccc(C(=O)C6CC6)cc5F)n4)cc3F)n(CC3(CF)CC3)c2c1 [Compound 48]	0.065		
